Data from US20160024249A1, “Temperature-Responsive Polymer Compositions and Methods of Use” (Vanderbilt University, priority 2014, published 2016).
No end group written: not given here.

How the values were obtained:
[1] = system: mouse aortic endothelial cells (mAECs); test: MMP-9 activity by zymography; assay type: cell-based; settings: 72 h, peptides 75 mg/mL, MMP-9 inhibitors 5 mM, TNF-a antibodies 5 mg/mL
Procedure: (§1) Cell Culture: RAW 264.7 macrophages (ATCC) were cultured in DMEM (Gibco) supplemented with 10% FBS and 1% penicillin/strepto-mycin. Mouse aortic endothelial cells (mAECs) were a generous gift from Dr. Ambra Pozzi at Vanderbilt University Medical Center. mAECs were cultured in EGM-2 Basal Media supplemented with BulletKit (Lonza, Allendale, N.J.) and 10 units/mLIFN-g (Sigma). RAW 264.7 mouse macrophage cells (Sigma) were cultured in DMEM with 10% FBS and 1% penicillin/streptomycin. For cell culture studies with peptides, 75 mg/mL of Ac-SDKP or C16 peptides was used. For inhibition studies, 5 mM of MMP-9 inhibitor-1 (CTK8G1150; AG-L-66085, Santa Cruz Biotechnology, Dallas, Tex.) or 5 mg/mL of LEAF Purified Mouse TNF-a antibody (BioLegend) was used.
MMP-9 activity: After 72 h culture in serum-free media, culture media from mAECs or RAW 264.7 cells (3×10^5 cells/mL, with/without peptides or TNF-a/MMP-9 inhibitors) was collected, concentrated, and analyzed by zymography, as described previously. Concentrated protein samples were incubated with non-reducing buffer at a ratio of 1:1. […] total protein per lane were loaded onto a 7.5% polyacrylamide gel containing 0.1%(w/v) gelatin (Sigma). Gels were washed in dH2O containing 3.3% (v/v) Triton X-100, followed by […] incubation in reaction buffer at 37 C. After incubation, gels were placed in fixative (30% methanol, 10% acetic acid, and 60% dH2O) for 1 h before staining with 4 parts Coomassie brilliant blue R-250 (Sigma) and 1 part methanol for 12 h. Gels were destained in 25% methanol for 1 h. The gelatinolytic activity of pro-MMP-9 was determined by densitometry of the 97 KDa white band on a blue background using Image J(n=4 per treatment). MMP-9 expression was then normalized to the expression from the no inhibitor, no peptide treated group.

[2] = system: mouse aortic endothelial cells (mAECs); test: Tubulogenesis on growth factor reduced Matrigel; assay type: cell-based; settings: mAECs on Matrigel for 6 h
Procedure: as §1
Tubulogenesis: mAECs (3×10^5 cells/mL) were cultured on growth factor reduced Matrigel ([…], BD Biosciences) for 6 h before imaging for tube formation using a Nikon Eclipse Ti microscope (n=4 per treatment).

[3] = system: mouse model of hind limb ischemia; test: Laser Doppler perfusion imaging (LDPI) of perfusion recovery; assay type: in vivo, A/J mice; settings: peptide-loaded microgels, 14 day time course
Procedure: Mouse model of hind limb ischemia: Wild type A/J mice were used to develop a model of PAD as described previously, by ligating the femoral artery and vein at one ligation below the epigastric artery and a second ligation around the artery and vein at a distal location just proximal to the deep femoral branch. The femoral artery and vein were then cut between these two sutures. A 13% by weight solution of injectable polymers in H2O 2O was mixed with 75 mg Ac-SDKP, C16, or the combination of Ac-SDKP and C16 at 25° C. In order to control the hydrogel size considering the possibility that the hydrogel size may change peptide release and therefore inflammatory responses a single, 10 mL bulk injection or ten, 1 mL injections of peptide-loaded polymer were made into the thigh muscle adjacent to the femoral artery ligations. The surgical incision was then closed with non-degradable sutures. […]
LDPI: LDPI was performed on the footpad region of the hind limb of the mice using a Periscan PIM II device. […] The perfusion ratio was calculated by normalizing the average perfusion value of the ischemic footpad (right) to the average perfusion value of the control, un-operated footpad (left) using Image J (NIH).

RAW 264.7 macrophages [4] = test: Gene expression by quantitative RT-PCR; assay type: cell-based, mouse; settings: 75 mg/mL peptide, 72 h
Procedure: as §1
Gene expression: mAECs or RAW 264.7 cells were seeded at a density of 3×10^5 cells/mL on TCPS with 75 mg/mL of Ac-SDKP, C16, or the combination of C16 and Ac-SDKP peptides. After 3 days, RNA was extracted from […] using Trizol reagent and RNA easy columns. After dissolving RNA in RNase-free water, the concentration and purity of isolated RNA was measured using TECAN plate reader Nanoquant (company info). […] 50 ng/well cDNA was then amplified using SYBR green Supermix and fluorescence signal was measured on a BioRAD real time PCR machine. […] Expression was calculated using the […] and normalized to GAPDH expression (n=8).

[5] = system: mouse model of hind limb ischemia; test: Histological analysis of inflammation (H&E, F4/80 macrophage infiltration); assay type: in vivo, A/J mice; settings: multiple 1 mL microgel injections
Description: Mouse model of hind limb ischemia: Wild type A/J mice were used to develop a model of PAD as described previously, by ligating the femoral artery and vein at one ligation below the epigastric artery and a second ligation around the artery and vein at a distal location just proximal to the deep femoral branch. The femoral artery and vein were then cut between these two sutures. […] In order to control the hydrogel size considering the possibility that the hydrogel size may change peptide release and therefore inflammatory responses a single, 10 mL bulk injection or ten, 1 mL injections of peptide-loaded polymer were made into the thigh muscle adjacent to the femoral artery ligations. The surgical incision was then closed with non-degradable sutures. […]
Histological analysis of angiogenesis and inflammation: After sacrificing mice, ischemic muscle samples were prepared for histological analysis as described elsewhere. […] Immunohistochemical (IHC) staining to identify activated inflammatory cells by F4/80 expression was quantified by normalizing the total F4/80 positive area (indicated by brown staining) to the total cell number (determined by hema-toxylin nuclear staining) using Image J.

[6] = system: mouse model of hind limb ischemia; test: Optical coherence tomography (Doppler and speckle-variance OCT) of blood vessels; assay type: in vivo, A/J mice; settings: for vessel morphology (speckle-variance OCT volume scans of calf muscle): injectable microgels
Procedure: (§2) Mouse model of hind limb ischemia: Wild type A/J mice were used to develop a model of PAD as described previously, by ligating the femoral artery and vein at one ligation below the epigastric artery and a second ligation around the artery and vein at a distal location just proximal to the deep femoral branch. The femoral artery and vein were then cut between these two sutures. A 13% by weight solution of injectable polymers in H2O 2O was mixed with 75 mg Ac-SDKP, C16, or the combination of Ac-SDKP and C16 at 25° C. In order to control the hydrogel size considering the possibility that the hydrogel size may change peptide release and therefore inflammatory responses a single, 10 mL bulk injection or ten, 1 mL injections of peptide-loaded polymer were made into the thigh muscle adjacent to the femoral artery ligations. The surgical incision was then closed with non-degradable sutures. As controls, femoral artery ligation surgery was performed on animals without any microgels or peptide treatment or with peptide in PBS injections into the subcutaneous tissue adjacent to femoral artery ligations. The left hind limb (unoperated) was also used as a surgical control.
Optical coherence tomography: Doppler OCT and speckle-variance OCT were used to non-invasively image blood vessels in the ischemic gastrocnemius muscle of mice on days 1 and 13 after femoral artery ligation, as previously described. […] Doppler OCT cross-sectional scans (B-scans) were used to quantify blood flow changes over time in the hind limb, while volume intensity projections from speckle-variance OCT image volumes (C-scans) presented vessel morphology differences between groups. […] Six Doppler OCT B-scans (4 mm, 800 A-scans, Doppler number of 9) were performed per mouse at each time point and perfusion was quantified by calculating the ratio of the number of blood vessel pixels per scan over the total imaged area per scan (n=6 mice per time point).

[7] = system: mouse aortic endothelial cells (mAECs); test: Gene expression by quantitative RT-PCR; assay type: cell-based; settings: 75 mg/mL peptide, 72 h
Procedure: as §1
Gene expression: mAECs or RAW 264.7 cells were seeded at a density of 3×10^5 cells/mL on TCPS with 75 mg/mL of Ac-SDKP, C16, or the combination of C16 and Ac-SDKP peptides. After 3 days, RNA was extracted from […] using Trizol reagent and RNA easy columns. After dissolving RNA in RNase-free water, the concentration and purity of isolated RNA was measured using TECAN plate reader Nanoquant (company info). At least […] of RNA was reverse transcribed using iScriptReverse transcription Supermix for RT-qPCR on a BioRad thermocycler (company info). 50 ng/well cDNA was then amplified using SYBR green Supermix and fluorescence signal was measured on a BioRAD real time PCR machine. TGF-b1 forward: […], reverse: […]. NF-kb forward: […]-CACAGA, reverse: […]. TIMP1 forward: […], reverse: […]-CACA. FGF-1 forward: […], reverse: […]. FGF-2: MMP-9: […]-CAATCC, reverse: […]. MMP-2 forward: […], reverse: […]. TNF-a: forward: […], reverse: AGA-[…]. VEGF forward: […]-CACCA, reverse: […]. GAPDH forward: […], reverse: […]. TIMP-2 forward: […], reverse: CACGCG-[…]. Expression was calculated using the […] and normalized to GAPDH expression (n=8).

RAW 264.7 macrophages [8] = test: MMP-9 activity by zymography; assay type: cell-based, mouse; settings: RAW 264.7, 72 h, regardless of TNF-a inhibition
Procedure: as §1
MMP-9 activity: After 72 h culture in serum-free media, culture media from mAECs or RAW 264.7 cells (3×10^5 cells/mL, with/without peptides or TNF-a/MMP-9 inhibitors) was collected, concentrated, and analyzed by zymography, as described previously. Concentrated protein samples were incubated with non-reducing buffer at a ratio of 1:1. […] total protein per lane were loaded onto a 7.5% polyacrylamide gel containing 0.1%(w/v) gelatin (Sigma). […] The gelatinolytic activity of pro-MMP-9 was determined by densitometry of the 97 KDa white band on a blue background using Image J(n=4 per treatment). […]

[9] = system: mouse model of hind limb ischemia; test: Fluorescence microangiography (vessel perfusion capacity); assay type: in vivo, A/J mice
Procedure: as §2
Angiogenesis and phagocytosis assays: Fourteen days after femoral artery ligation, mice were sacrificed and tissue and microgels were harvested for analysis. Immediately before sacrificing the mice, functional fluorescence micro-angiography was performed to visualize angiogenesis in and around peptide-loaded microgels, as described previously. As a result of fluorescence microangiography, only the functional capillaries with a perfusion capacity, including those around injected micro-gels, show red fluorescence in the mouse body. Excised tissue from the site of microgel injections was imaged using an Olympus FV100 confocal microscope. For quantification of vessel perfusion capacity, the red fluorescence intensity was quantified using Image J software (n=6 images per mouse, n=6 mice per treatment).

[10] = system: mouse model of hind limb ischemia; test: Vybrant phagocytosis assay in harvested microgels and surrounding tissue; assay type: in vivo, A/J mice; settings: peptide-loaded microgels, day 14
Description: Mouse model of hind limb ischemia: Wild type A/J mice were used to develop a model of PAD as described previously, by ligating the femoral artery and vein at one ligation below the epigastric artery and a second ligation around the artery and vein at a distal location just proximal to the deep femoral branch. The femoral artery and vein were then cut between these two sutures. […] In order to control the hydrogel size considering the possibility that the hydrogel size may change peptide release and therefore inflammatory responses a single, 10 mL bulk injection or ten, 1 mL injections of peptide-loaded polymer were made into the thigh muscle adjacent to the femoral artery ligations. The surgical incision was then closed with non-degradable sutures. As controls, femoral artery ligation surgery was performed on animals without any microgels or peptide treatment or with peptide in PBS injections into the subcutaneous tissue adjacent to femoral artery ligations. […]
A phagocytosis assay was performed in harvested microgels using Vybrant Phagocytosis Assay kit according to the manufacturer's protocol. Green fluorescence from internalized Escherichia coli particles in excised microgels and surrounding tissue was visualized through confocal imaging. The intensity of green fluorescence in each image was quantified using Image J (n=6 images per mouse, n=6 mice per treatment).

RAW 264.7 macrophages [11] = test: TNF-a ELISA of cell culture supernatant; assay type: cell-based, mouse; settings: RAW 264.7, 72 h, peptides 75 mg/mL, TNF-a antibodies 5 mg/mL
Procedure: as §1
ELISA: To verify TNF-a inhibition with antibodies, an ELISA was performed using Mouse TNF-a ELISA MAXTM Deluxe (Biolegend) according to the supplier's protocol. Secreted TNF-a in RAW 264.7 cell culture supernatant was measured by reading absorbance at 450 nm using a TECAN M1000 plate reader and quantified against a standard curve (n=4 per treatment).

Procedure for iPSC-CMs: The encapsulation study was performed by mixing cells with polymer solution and gelled at 37° C. After two weeks, live cells were stained by calcein AM (green fluorescence) (g).

Row | Compound | MMP-9 activity in endothelial cells (zymography) [1] | tubulogenesis (tube formation) [2] | higher perfusion compared to microgels without peptides (LDPI) ([3]; ischemic/control foot ratio) | TNF-a expression in comparison to no peptide treatment (RAW 264.7 macrophages [4]) | macrophage infiltration, increase compared to no peptide treatment ([5]; day 14) | increase in the total area of vessels (Doppler OCT) compared to Ac-SDKP or no treatment ([6]; implantable scaffolds, day 1 to day 13) | vessel morphology (speckle-variance OCT volume scans of calf muscle) [6] | TIMP-1 expression [7] | TNF-a expression in comparison to no peptide treatment [7] | MMP-9 activity compared to macrophages without peptide treatment (RAW 264.7 macrophages [8]) | angiogenesis compared to PBS alone ([9]; PBS injections of peptide, no microgel) | angiogenesis / perfusion capacity increase vs. microgels without peptides ([9]; microgel-mediated delivery, day 14) | phagocytic activity in tissue around microgels [10] | viability of encapsulated iPSC-CMs (calcein AM) (iPSC-CMs) | secreted TNF-a (ELISA) (RAW 264.7 macrophages [11]) | perfusion recovery (LDPI) [3] | inflammatory / macrophage infiltration in muscle tissue ([5]; day 14, vs no peptide) | MMP-9 expression, decrease compared to no peptide treatment ([7]; normalized to GAPDH) | angiogenesis in comparison to microgels without peptide loading ([9]; peptide-loaded microgels, day 14)
1 | CCN(CC)Cc1cc(C)c(N(Cc2ccccc2)S(=O)(=O)c2ccc(OC)cc2)c(C(=O)NO)c1 [MMP-9 inhibitor, reference compound] | attenuation of MMP-9 activity | significantly reduced | – | – | – | – | – | – | – | – | – | – | – | – | – | – | – | – | –
2 | KAFDITYVRLKF [C16, pro-angiogenic peptide] | augmented MMP-9 activity and tubulogenesis | augmented MMP-9 activity and tubulogenesis | 29% | increased TNF-a expression | two fold | greater than two fold | many vessels with a high degree of branching | decreased TIMP-1 expression significantly | increased TNF-a expression | significantly higher levels of MMP-9 activity | Slightly increased angiogenesis | ~1.5 fold | higher phagocytic activity than no peptide controls | – | – | – | – | – | –
3 | polyethylene glycol-co-poly-8-caprolactone [PEG-PCL] | – | – | – | – | – | – | – | – | – | – | – | – | – | maintained their viability | – | – | – | – | –
4 | N-acetyl-Ser-Asp-Lys-Pro (Ac-SDKP) [anti-inflammatory peptide] | diminished | diminished | – | decreased TNF-a expression | – | – | few blood vessels with limited branching | – | decreased TNF-a expression | – | – | – | reduced both responses | – | secreted the least amounts of TNF-a | did not increase perfusion | further decreased inflammatory infiltration | over 50% | reduced both responses
